Reference: PubChem BioAssay (NCI)
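Exposure lasted 48 hours, with cells grown in 96-well plates and compounds tested at five concentrations. Definition used: TGI = concentration required for complete inhibition of growth.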

Experiments:
Experiment in all cases: DTP human tumour cell line panel, 48 h
MALME-3M melanoma = tested on: MALME-3M melanoma
CAKI-1 renal = tested on: CAKI-1 renal
UO-31 renal = tested on: UO-31 renal
786-0 renal = tested on: 786-0 renal
SW-620 colon = tested on: SW-620 colon
DU-145 prostate = tested on: DU-145 prostate
SF-539 CNS = tested on: SF-539 CNS
MDA-MB-435 = tested on: MDA-MB-435
KM12 colon = tested on: KM12 colon
EKVX NSCLC = tested on: EKVX NSCLC
K-562 leukemia = tested on: K-562 leukemia
OVCAR-8 ovarian = tested on: OVCAR-8 ovarian
MDA-N = tested on: MDA-N
U251 CNS = tested on: U251 CNS
PC-3 prostate = tested on: PC-3 prostate
NCI/ADR-RES ovarian = tested on: NCI/ADR-RES ovarian
MDA-MB-231 breast = tested on: MDA-MB-231 breast
COLO 205 colon = tested on: COLO 205 colon
HCT-15 colon = tested on: HCT-15 colon
UACC-62 melanoma = tested on: UACC-62 melanoma
HCT-116 colon = tested on: HCT-116 colon
MOLT-4 leukemia = tested on: MOLT-4 leukemia
NCI-H522 lung = tested on: NCI-H522 lung
HOP-92 NSCLC = tested on: HOP-92 NSCLC
SNB-19 CNS = tested on: SNB-19 CNS
HT29 colon = tested on: HT29 colon
ACHN renal = tested on: ACHN renal
HOP-62 NSCLC = tested on: HOP-62 NSCLC
NCI-H460 lung = tested on: NCI-H460 lung
RXF 393 renal = tested on: RXF 393 renal
NCI-H226 lung = tested on: NCI-H226 lung
HS 578T breast = tested on: HS 578T breast
IGROV1 ovarian = tested on: IGROV1 ovarian
MCF7 breast = tested on: MCF7 breast
OVCAR-3 ovarian = tested on: OVCAR-3 ovarian
HL-60(TB) leukemia = tested on: HL-60(TB) leukemia
T-47D breast = tested on: T-47D breast
M14 melanoma = tested on: M14 melanoma
SF-295 CNS = tested on: SF-295 CNS
SF-268 CNS = tested on: SF-268 CNS
TK-10 renal = tested on: TK-10 renal
A549 NSCLC = tested on: A549 NSCLC
SR leukemia = tested on: SR leukemia
OVCAR-4 ovarian = tested on: OVCAR-4 ovarian
LOX IMVI melanoma = tested on: LOX IMVI melanoma
NCI-H23 lung = tested on: NCI-H23 lung
SK-MEL-28 melanoma = tested on: SK-MEL-28 melanoma
OVCAR-5 ovarian = tested on: OVCAR-5 ovarian
RPMI-8226 leukemia = tested on: RPMI-8226 leukemia
SK-MEL-5 melanoma = tested on: SK-MEL-5 melanoma
BT-549 breast = tested on: BT-549 breast
SNB-75 CNS = tested on: SNB-75 CNS
SK-OV-3 ovarian = tested on: SK-OV-3 ovarian
SN12C renal = tested on: SN12C renal
SK-MEL-2 melanoma = tested on: SK-MEL-2 melanoma
UACC-257 melanoma = tested on: UACC-257 melanoma
HCC-2998 colon = tested on: HCC-2998 colon
CCRF-CEM leukemia = tested on: CCRF-CEM leukemia

In the case of `COC(=O)C1(NC(=O)C(CC(=O)OCc2ccccc2)NC(=O)OCc2ccccc2)CCCCCC1` (stereo not drawn), the TGI (MALME-3M melanoma) was greater than 100 µM, the TGI (CAKI-1 renal) was 48.5 µM and the TGI (UO-31 renal) was greater than 100 µM. It also gave a TGI (786-0 renal) greater than 100 µM, a TGI (SW-620 colon) greater than 100 µM and a TGI (DU-145 prostate) greater than 100 µM. It also gave a TGI (SF-539 CNS) of 49.2 µM, a TGI (MDA-MB-435) of 74.4 µM and a TGI (KM12 colon) greater than 100 µM. It also gave a TGI (EKVX NSCLC) greater than 100 µM, a TGI (K-562 leukemia) of 82.9 µM and a TGI (OVCAR-8 ovarian) of 90.5 µM. It also gave a TGI (MDA-N) of 61.4 µM, a TGI (U251 CNS) greater than 100 µM and a TGI (PC-3 prostate) greater than 100 µM. It also gave a TGI (NCI/ADR-RES ovarian) of 82.5 µM, a TGI (MDA-MB-231 breast) greater than 100 µM and a TGI (COLO 205 colon) of 47.3 µM. It also gave a TGI (HCT-15 colon) greater than 100 µM, a TGI (UACC-62 melanoma) of 34.3 µM and a TGI (HCT-116 colon) greater than 100 µM. The TGI (MOLT-4 leukemia) was greater than 100 µM, the TGI (NCI-H522 lung) was greater than 100 µM and the TGI (HOP-92 NSCLC) was greater than 100 µM. The TGI (SNB-19 CNS) was greater than 100 µM, the TGI (HT29 colon) was 50.7 µM and the TGI (ACHN renal) was greater than 100 µM. It also gave a TGI (HOP-62 NSCLC) of 67.5 µM, a TGI (NCI-H460 lung) greater than 100 µM and a TGI (RXF 393 renal) greater than 100 µM. It also gave a TGI (NCI-H226 lung) of 72.7 µM, a TGI (HS 578T breast) greater than 100 µM and a TGI (IGROV1 ovarian) greater than 100 µM. It also gave a TGI (MCF7 breast) greater than 100 µM, a TGI (OVCAR-3 ovarian) greater than 100 µM and a TGI (HL-60(TB) leukemia) of 51 µM. It also gave a TGI (T-47D breast) greater than 100 µM, a TGI (M14 melanoma) greater than 100 µM and a TGI (SF-295 CNS) greater than 100 µM. It also gave a TGI (SF-268 CNS) greater than 100 µM, a TGI (TK-10 renal) greater than 100 µM and a TGI (A549 NSCLC) greater than 100 µM. The TGI (SR leukemia) was 87.4 µM, the TGI (OVCAR-4 ovarian) was 43.8 µM and the TGI (LOX IMVI melanoma) was 66 µM. For the same compound, the TGI (NCI-H23 lung) was greater than 100 µM, the TGI (SK-MEL-28 melanoma) was greater than 100 µM and the TGI (OVCAR-5 ovarian) was greater than 100 µM. For the same compound, the TGI (RPMI-8226 leukemia) was 21.9 µM, the TGI (SK-MEL-5 melanoma) was 28.8 µM and the TGI (BT-549 breast) was 61.5 µM. The TGI (SNB-75 CNS) was greater than 100 µM and the TGI (SK-OV-3 ovarian) was 94.6 µM.
`O=c1[nH]c2nc3ccccc3c(=O)n2/c1=C/c1ccc(Cl)cc1` gave a TGI (MALME-3M melanoma) greater than 100 µM, a TGI (CAKI-1 renal) greater than 100 µM and a TGI (UO-31 renal) greater than 100 µM. For the same compound, the TGI (786-0 renal) was greater than 100 µM, the TGI (SN12C renal) was greater than 100 µM and the TGI (SW-620 colon) was 59.7 µM. It also gave a TGI (DU-145 prostate) greater than 100 µM, a TGI (SF-539 CNS) of 47.7 µM and a TGI (MDA-MB-435) of 58.5 µM. It also gave a TGI (SK-MEL-2 melanoma) greater than 100 µM, a TGI (KM12 colon) greater than 100 µM and a TGI (OVCAR-8 ovarian) of 58.6 µM. It also gave a TGI (MDA-N) of 59.5 µM, a TGI (U251 CNS) greater than 100 µM and a TGI (PC-3 prostate) greater than 100 µM. The TGI (NCI/ADR-RES ovarian) was greater than 100 µM, the TGI (MDA-MB-231 breast) was greater than 100 µM and the TGI (COLO 205 colon) was greater than 100 µM. For the same compound, the TGI (HCT-15 colon) was greater than 100 µM, the TGI (UACC-62 melanoma) was greater than 100 µM and the TGI (HCT-116 colon) was greater than 100 µM. The TGI (MOLT-4 leukemia) was greater than 100 µM, the TGI (NCI-H522 lung) was 71.8 µM and the TGI (HOP-92 NSCLC) was greater than 100 µM. For the same compound, the TGI (SNB-19 CNS) was 79.8 µM, the TGI (ACHN renal) was greater than 100 µM and the TGI (HOP-62 NSCLC) was greater than 100 µM. For the same compound, the TGI (RXF 393 renal) was greater than 100 µM, the TGI (UACC-257 melanoma) was greater than 100 µM and the TGI (HS 578T breast) was 65.2 µM. For the same compound, the TGI (MCF7 breast) was greater than 100 µM, the TGI (OVCAR-3 ovarian) was greater than 100 µM and the TGI (HL-60(TB) leukemia) was greater than 100 µM. For the same compound, the TGI (T-47D breast) was greater than 100 µM, the TGI (M14 melanoma) was greater than 100 µM and the TGI (SF-295 CNS) was greater than 100 µM. It also gave a TGI (HCC-2998 colon) of 65.3 µM, a TGI (SF-268 CNS) greater than 100 µM and a TGI (TK-10 renal) greater than 100 µM. For the same compound, the TGI (A549 NSCLC) was greater than 100 µM, the TGI (SR leukemia) was greater than 100 µM and the TGI (OVCAR-4 ovarian) was greater than 100 µM. For the same compound, the TGI (LOX IMVI melanoma) was greater than 100 µM, the TGI (NCI-H23 lung) was greater than 100 µM and the TGI (SK-MEL-28 melanoma) was greater than 100 µM. The TGI (OVCAR-5 ovarian) was greater than 100 µM, the TGI (RPMI-8226 leukemia) was greater than 100 µM and the TGI (BT-549 breast) was 46.2 µM. It also gave a TGI (CCRF-CEM leukemia) greater than 100 µM and a TGI (SK-OV-3 ovarian) greater than 100 µM.
